Data as given in EP0234946A2, “New compounds” (THE WELLCOME FOUNDATION LIMITED, priority 1986, dated 1987).

Molecular target: T1, angiotensin converting enzyme (Cavia porcellus, UniProt H0UWL7)
T1 construct: from tissue; host or cells: guinea pig ileum
T1 sequence (H0UWL7 33-1302): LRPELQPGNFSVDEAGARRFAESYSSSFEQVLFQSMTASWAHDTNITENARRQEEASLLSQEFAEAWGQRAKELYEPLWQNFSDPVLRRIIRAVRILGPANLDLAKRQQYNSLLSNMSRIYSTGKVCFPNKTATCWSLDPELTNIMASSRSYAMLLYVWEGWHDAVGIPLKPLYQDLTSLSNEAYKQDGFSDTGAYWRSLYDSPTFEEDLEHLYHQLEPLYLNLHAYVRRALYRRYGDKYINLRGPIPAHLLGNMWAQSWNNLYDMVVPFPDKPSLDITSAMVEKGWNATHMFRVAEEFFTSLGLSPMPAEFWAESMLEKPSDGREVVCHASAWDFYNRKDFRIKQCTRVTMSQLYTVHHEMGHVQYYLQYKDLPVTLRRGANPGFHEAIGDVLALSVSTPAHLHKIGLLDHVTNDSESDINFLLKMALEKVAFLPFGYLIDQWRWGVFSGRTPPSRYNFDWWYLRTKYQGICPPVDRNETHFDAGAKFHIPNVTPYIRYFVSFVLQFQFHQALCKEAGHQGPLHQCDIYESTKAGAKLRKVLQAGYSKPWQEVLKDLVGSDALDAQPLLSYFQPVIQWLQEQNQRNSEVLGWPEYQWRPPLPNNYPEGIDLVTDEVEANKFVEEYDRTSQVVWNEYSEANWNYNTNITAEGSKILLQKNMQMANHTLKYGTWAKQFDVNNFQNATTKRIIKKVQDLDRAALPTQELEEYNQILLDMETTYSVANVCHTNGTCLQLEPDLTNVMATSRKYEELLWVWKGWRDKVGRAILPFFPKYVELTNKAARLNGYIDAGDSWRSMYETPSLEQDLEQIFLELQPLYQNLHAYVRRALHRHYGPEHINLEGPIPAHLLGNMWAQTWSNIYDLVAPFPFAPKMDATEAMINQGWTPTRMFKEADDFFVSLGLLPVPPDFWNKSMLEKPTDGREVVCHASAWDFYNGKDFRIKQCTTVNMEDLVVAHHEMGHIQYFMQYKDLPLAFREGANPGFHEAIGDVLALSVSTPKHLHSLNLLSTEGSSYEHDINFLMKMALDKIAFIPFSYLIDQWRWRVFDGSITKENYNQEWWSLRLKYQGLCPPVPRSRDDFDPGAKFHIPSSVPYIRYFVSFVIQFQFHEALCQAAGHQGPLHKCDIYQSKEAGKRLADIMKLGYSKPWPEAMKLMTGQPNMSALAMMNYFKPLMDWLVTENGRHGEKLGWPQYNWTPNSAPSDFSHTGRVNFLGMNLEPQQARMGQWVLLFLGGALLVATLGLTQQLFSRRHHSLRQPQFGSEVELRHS
Test: angiotensin converting enzyme inhibition in guinea pig ileum (inhibition of contractile responses to Angiotensin I)
Details: dose-dependent inhibition of contractile responses to Angiotensin I, read-out: EC50 (the source's name)
Excerpt: (b) ACE inhibition in vitro
In an assay for angiotensin converting enzyme inhibition in guinea pig ileum, dose-dependent inhibition of contractile responses to Angiotensin I gave the following results: […]

| SMILES | IC50 [nM] |
| --- | --- |
| CC(C)NCC(O)COc1cccc2cc(C(=O)NCCCC[C@H](NC(C)C(=O)N3CCC[C@H]3C(=O)O)C(=O)O)ccc12 (stereo partly drawn) [Example 2, N-(1(S)-Carboxy-5-[5-(2,(R,S)-hydroxy-3-isopropylaminopropoxy)naphth-2-ylcarboxamido]pentyl)-(R,S)-alanyl-(S)-proline bistrifluoroacetate] | 13.5 |
| CC(C)NC[C@H](O)COc1cccc2[nH]c(C(=O)NCCCC[C@H](N[C@@H](C)C(=O)N3CCC[C@H]3C(=O)O)C(=O)O)cc12 [Example 1, N-(1(S)-Carboxy-5-[4-(2(S)-hydroxy-3-isopropylaminopropoxy)-1H-indol-2-ylcarboxamido]pentyl)-(S)-alanyl-(S)-proline] | 1.4 |
| CC(C)NCC(O)COc1cccc2ccc(C(=O)NCCCC[C@H](NC(C)C(=O)N3CCC[C@H]3C(=O)O)C(=O)O)cc12 (stereo partly drawn) [Example 3, N-(1(S)-Carboxy-5-[8-(2(R,S)-hydroxy-3-isopropylaminopropoxy)naphth-2--ylcarboxamido]pentyl)-(R,S)-alanyl-(S)-proline bistrifluoroacetate] | 10.3 |
